As a reminder, the pEC50 is the EC50 on a negative log10 scale, so that one unit is a factor of ten.

pEC50: −log10 of the molar value.

Data on 35 compounds can be found in patent US10584115B2, “Substituted pyridine and pyrazine BMI-1 inhibitors” (PTC Therapeutics, Inc., priority 2013, dated 2020).

The first experiment has as its system Bmi-1 protein. The experiment can be described thus: Sandwich ELISA Assay (Bmi-1 protein level in HT-1080 cells after compound treatment). The format is cell-based. Conditions: Table 1, Bmi-1 sandwich ELISA, read-out: ELISA EC50 value for Bmi-1 protein. In outline: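 Sandwich ELISA quantified Bmi-1 protein against recombinant standard (125–8000 pg/mL), with lysates captured overnight at 4 °C and signal by HRP/TMB at 450 nm (570 nm reference). Lysates came from HT-1080 cells incubated 40–48 h with test compounds in 0.5% DMSO.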
(In general: An ELISA detects its analyte on a solid surface through an enzyme-linked reagent.)
Consider `O=C(c1ccc(Nc2cncc(-c3c(C(F)(F)F)nc4ccccn34)n2)cc1)C(F)(F)F` [compound 212, 2,2,2-trifluoro-1-[4-({6-[2-(trifluoromethyl)imidazo[1,2-a]pyridin-3-yl]pyrazin-2-yl}amino)phenyl]ethanone], for which the pEC50 is 5.52 to 7.00. Take `OCc1nc2ccccn2c1-c1cncc(Nc2ccc(OC(F)(F)F)cc2)n1` [compound 213, [3-(6-{[4-(trifluoromethoxy)phenyl]amino}pyrazin-2-yl)imidazo[1,2-a]pyridin-2-yl]methanol]: the pEC50 is 5.52 to 7.00.

On to `Cc1ccc(Nc2cncc(-c3c(CO)nc4ccccn34)n2)cc1` [compound 214, (3-{6-[(4-methylphenyl)amino]pyrazin-2-yl}imidazo[1,2-a]pyridin-2-yl)methanol], for which the pEC50 was more than 9.00.

On to `OCc1nc2ccccn2c1-c1cncc(Nc2ccc(OC(F)F)cc2)n1` [compound 215, [3-(6-{[4-(difluoromethoxy)phenyl]amino}pyrazin-2-yl)imidazo[1,2-a]pyridin-2-yl]methanol], for which the pEC50 is 8.00 to 9.00. For the compound `N#Cc1cc(Nc2ccc(OC(F)(F)F)cc2)nc(-c2c(C(F)(F)F)nc3ccccn23)c1` [compound 218, 2-{[4-(trifluoromethoxy)phenyl]amino}-6-[2-(trifluoromethyl)imidazo[1,2-a]pyridin-3-yl]pyridine-4-carbonitrile], the pEC50 is 7.00 to 8.00. As for `Cc1nc2ccc(Cl)cc2n1-c1cncc(Nc2ccc(OC(F)(F)F)cc2)n1` [compound 220, 6-(6-chloro-2-methyl-1H-benzimidazol-1-yl)-N-[4-(trifluoromethoxy)phenyl]pyrazin-2-amine], the pEC50 was 7.00 to 8.00.

Consider `Cc1nc2ccc(Cl)cc2n1-c1cncc(Nc2ccc(OC(F)F)cc2)n1` [compound 221, 6-(6-chloro-2-methyl-1H-benzimidazol-1-yl)-N-[4-(difluoromethoxy)phenyl]pyrazin-2-amine], for which the pEC50 was 8.00 to 9.00.

As for `N#Cc1cc(Nc2ccc(OC(F)(F)F)cc2)nc(-c2c(C(F)(F)F)nc3ccc(F)cn23)c1` [compound 222, 2-[6-fluoro-2-(trifluoromethyl)imidazo[1,2-a]pyridin-3-yl]-6-{[4-(trifluoromethoxy)phenyl]amino}pyridine-4-carbonitrile], the pEC50 was 7.00 to 8.00.

On to `Cc1nc2cc(Cl)ccc2n1-c1cncc(Nc2ccc(OC(F)(F)F)cc2)n1` [compound 223, 6-(5-chloro-2-methyl-1H-benzimidazol-1-yl)-N-[4-(trifluoromethoxy)phenyl]pyrazin-2-amine], for which the pEC50 is 5.52 to 7.00. Same read-out and setting: in the case of `Cc1nc2cc(Cl)ccc2n1-c1cncc(Nc2ccc(OC(F)F)cc2)n1` [compound 224, 6-(5-chloro-2-methyl-1H-benzimidazol-1-yl)-N-[4-(difluoromethoxy)phenyl]pyrazin-2-amine] it was 7.00 to 8.00. The same measure, in the same setting: in the case of `CNc1ccc2nc(C)n(-c3cncc(Nc4ccc(OC(F)(F)F)cc4)n3)c2c1` [compound 225, N,2-dimethyl-1-(6-{[4-(trifluoromethoxy)phenyl]amino}pyrazin-2-yl)-1H-benzimidazol-6-amine] it was 5.52 to 7.00; in that of `Cc1n[nH]c(C)c1-c1cncc(Nc2ccc(C(F)(F)F)cc2)n1` [compound 226, 6-(3,5-dimethyl-1H-pyrazol-4-yl)-N-[4-(trifluoromethyl)phenyl]pyrazin-2-amine], 5.52 to 7.00. As for `Cc1nc2cc(F)c(F)cc2n1-c1cc(N)cc(Nc2ccc(C(F)(F)F)cc2)n1` [compound 231, 6-(5,6-difluoro-2-methyl-1H-benzimidazol-1-yl)-N^2-[4-(trifluoromethyl)phenyl]pyridine-2,4-diamine], the pEC50 was 7.00 to 8.00. On the same count and under the same terms, in the case of `Cc1nc2cc(Cl)ccc2n1-c1cncc(Nc2ccc(C(F)(F)F)cc2)n1` [compound 239, 6-(5-chloro-2-methyl-1H-benzimidazol-1-yl)-N-[4-(trifluoromethyl)phenyl]pyrazin-2-amine] it was 7.00 to 8.00.

`Cc1nc2ccc(Cl)cc2n1-c1cncc(Nc2ccc(C(F)(F)F)cc2)n1` [compound 240, 6-(6-chloro-2-methyl-1H-benzimidazol-1-yl)-N-[4-(trifluoromethyl)phenyl]pyrazin-2-amine]: the pEC50 is 7.00 to 8.00. The same measure, in the same setting: in the case of `Cc1nc2cc(F)c(F)cc2n1-c1cc(C#N)cc(Nc2ccc(C(F)(F)F)cc2)n1` [compound 241, 2-(5,6-difluoro-2-methyl-1H-benzimidazol-1-yl)-6-{[4-(trifluoromethyl)phenyl]amino}pyridine-4-carbonitrile] it was 7.00 to 8.00; in that of `Cc1nc2cc(F)c(F)cc2n1-c1cc(C#N)cc(Nc2ccc(OC(F)F)cc2)n1` [compound 242, 2-{[4-(difluoromethoxy)phenyl]amino}-6-(5,6-difluoro-2-methyl-1H-benzimidazol-1-yl)pyridine-4-carbonitrile], 7.00 to 8.00; in that of `Cc1nc2cc(F)c(F)cc2n1-c1cc(C#N)cc(Nc2ccc(OC(F)(F)F)cc2)n1` [compound 243, 2-(5,6-difluoro-2-methyl-1H-benzimidazol-1-yl)-6-{[4-(trifluoromethoxy)phenyl]amino}pyridine-4-carbonitrile], 5.52 to 7.00.

Consider `FC(F)Oc1ccc(Nc2cncc(-c3c(C4CC4)nc4ccc(C(F)(F)F)cn34)n2)cc1` [compound 251, 6-[2-cyclopropyl-6-(trifluoromethyl)imidazo[1,2-a]pyridin-3-yl]-N-[4-(difluoromethoxy)phenyl]pyrazin-2-amine], for which the pEC50 is 7.00 to 8.00.

With `Cc1nc2c(F)cc(F)cn2c1-c1cncc(Nc2ccc(OC(F)F)cc2)n1` [compound 255, N-[4-(difluoromethoxy)phenyl]-6-(6,8-difluoro-2-methylimidazo[1,2-a]pyridin-3-yl)pyrazin-2-amine], the pEC50 is 8.00 to 9.00. The same measure, in the same setting: the result for `Cc1nc2ccccc2n1-c1cncc(Nc2ccc(C(C)N)cc2)n1` (centres unmarked) [compound 256, N-[4-(1-aminoethyl)phenyl]-6-(2-methyl-1H-benzimidazol-1-yl)pyrazin-2-amine] reads 5.52 to 7.00; that for `Cc1nc2c(n1-c1cncc(Nc3ccc(OC(F)F)cc3)n1)CCCC2` [compound 258, N-[4-(difluoromethoxy)phenyl]-6-(2-methyl-4,5,6,7-tetrahydro-1H-benzimidazol-1-yl)pyrazin-2-amine], 8.00 to 9.00; that for `Cc1nc2cc(F)c(F)cc2n1-c1cncc(Nc2ccc(OC(F)(F)F)cc2)n1` [compound 266, 6-(5,6-difluoro-2-methyl-1H-benzimidazol-1-yl)-N-[4-(trifluoromethoxy)phenyl]pyrazin-2-amine], 7.00 to 8.00. The same measure, in the same setting: the result for `Cc1nc2c(n1-c1cncc(Nc3ccc(C(F)(F)F)cc3)n1)CCCC2` [compound 267, 6-(2-methyl-4,5,6,7-tetrahydro-1H-benzimidazol-1-yl)-N-[4-(trifluoromethyl)phenyl]pyrazin-2-amine] reads 8.00 to 9.00. Still for that read-out and setting: in the case of `Cc1nc2c(n1-c1cncc(Nc3ccc(OC(F)(F)F)cc3)n1)CCCC2` [compound 268, 6-(2-methyl-4,5,6,7-tetrahydro-1H-benzimidazol-1-yl)-N-[4-(trifluoromethoxy)phenyl]pyrazin-2-amine] it was 7.00 to 8.00; in that of `Cc1nc2ncc(F)cc2n1-c1cncc(Nc2ccc(C(F)(F)F)cc2)n1` [compound 270, 6-(6-fluoro-2-methyl-1H-imidazo[4,5-b]pyridin-1-yl)-N-[4-(trifluoromethyl)phenyl]pyrazin-2-amine], 8.00 to 9.00; in that of `CCc1nc2ncc(F)cc2n1-c1cncc(Nc2ccc(C(F)(F)F)cc2)n1` [compound 271, 6-(2-ethyl-6-fluoro-1H-imidazo[4,5-b]pyridin-1-yl)-N-[4-(trifluoromethyl)phenyl]pyrazin-2-amine], 8.00 to 9.00. As to `N#Cc1cc(Nc2ccc(C(F)(F)F)cc2)nc(-c2c(C(F)(F)F)nc3ccc(F)cn23)c1` [compound 272, 2-[6-fluoro-2-(trifluoromethyl)imidazo[1,2-a]pyridin-3-yl]-6-{[4-(trifluoromethyl)phenyl]amino}pyridine-4-carbonitrile], the pEC50 was 7.00 to 8.00. As to `N#Cc1cc(Nc2ccc(OC(F)F)cc2)nc(-c2c(C(F)(F)F)nc3ccc(F)cn23)c1` [compound 273, 2-{[4-(difluoromethoxy)phenyl]amino}-6-[6-fluoro-2-(trifluoromethyl)imidazo[1,2-a]pyridin-3-yl]pyridine-4-carbonitrile], the pEC50 was 8.00 to 9.00. Same read-out and setting: in the case of `CNc1ccc2nc(C)n(-c3cncc(Nc4ccc(C(F)(F)F)cc4)n3)c2c1` [compound 274, N,2-dimethyl-1-(6-{[4-(trifluoromethyl)phenyl]amino}pyrazin-2-yl)-1H-benzimidazol-6-amine] it was 7.00 to 8.00. As for `Cc1nc2ccc(NCc3ccccc3)cc2n1-c1cncc(Nc2ccc(C(F)(F)F)cc2)n1` [compound 275, N-benzyl-2-methyl-1-(6-{[4-(trifluoromethyl)phenyl]amino}pyrazin-2-yl)-1H-benzimidazol-6-amine], the pEC50 is 7.00 to 8.00. Still for that read-out and setting: the result for `Cc1c(-c2cncc(Nc3ccc(C(F)(F)F)cc3)n2)c(C(F)(F)F)nn1C` [compound 276, 6-[1,5-dimethyl-3-(trifluoromethyl)-1H-pyrazol-4-yl]-N-[4-(trifluoromethyl)phenyl]pyrazin-2-amine] reads 7.00 to 8.00.

The same experiment, now with this note: read-out: ELISA EC50 value for Bmi-1 protein, Table 1, Bmi-1 sandwich ELISA.
With `FC(F)(F)c1ccc(Nc2cncc(-c3cnc4ccccn34)n2)cc1` [compound 235, 6-(imidazo[1,2-a]pyridin-3-yl)-N-[4-(trifluoromethyl)phenyl]pyrazin-2-amine], the pEC50 is 5.52 to 7.00.

Take `Cc1nc2c(F)cc(F)cn2c1-c1cncc(Nc2ccc(C(F)(F)F)cc2)n1` [compound 254, 6-(6,8-difluoro-2-methylimidazo[1,2-a]pyridin-3-yl)-N-[4-(trifluoromethyl)phenyl]pyrazin-2-amine]: the pEC50 is 8.00 to 9.00.

Regarding `Cc1ccc(-c2c(C(F)(F)F)nc3ccccn23)nc1Nc1ccc(C(F)(F)F)cc1` [compound 269, 3-methyl-6-[2-(trifluoromethyl)imidazo[1,2-a]pyridin-3-yl]-N-[4-(trifluoromethyl)phenyl]pyridin-2-amine], the pEC50 is 5.52 to 7.00.
